Reference: patent US10808008B2, “Aromatic-cationic peptides and uses of same” (Cornell University, priority 2012, dated 2020)
Entries after “also recorded” stand apart in the source; their conditions may differ.

How the values were obtained:
Type in all cases: biochemical
[1] = biological target: cytochrome c/cardiolipin complex (Equus caballus, UniProt P00004); assay: Soret circular dichroism of cytochrome c with cardiolipin; settings: 10 μM cytochrome c; for protection against CL-induced disappearance of negative Cotton effect: 30 μg/ml CL, 10 μM peptide, 20 mM HEPES pH 7.5, 25° C.; for loss of the negative Cotton peak at 419 nm caused by cardiolipin: 30 μg/ml cardiolipin, peptide 1:1 with cytochrome c, pH 7.4
Description: Circular dichroism (CD) was carried out to examine the effects of the peptides on protecting the heme environment of cytochrome c from the acyl chain of CL. For heme proteins, the Soret CD spectrum is strictly correlated with the heme pocket conformation. In particular, the negative 416-420 nm Cotton effect is considered diagnostic of Fe(III)-Met80 coordination in native cytochrome c (Santucci and Ascoli, 1997). […] CD spectra were obtained using AVIV CD Spectrometer Model 410.
Changes in the Soret CD spectrum of cytochrome c (10 μM) were recorded in the absence (dotted line) and presence (dashed line) of 30 μg/ml CL, plus addition of different peptides (10 μM) (solid line) (FIG. 14). CD measurements were carried out using 20 mM HEPES, pH 7.5, at 25° C. and expressed as molar ellipticity (A) (m Deg). […] Accordingly, aromatic-cationic peptides of the present disclosure are useful for the prevention or treatment of diseases or disorders characterized by dysregulation of cardiolipin and/or cytochrome c, and/or diseases or disorders characterized by dysregulation of the cardiolipin/cytochrome c interaction. In addition, aromatic-cationic peptides of the present disclosure are useful to protect the heme environment of cytochrome c from the acyl chain of cardiolipin.
Circular Dichroism (CD) spectra were collected with an AVIA 62 DS spectrophotometer equipped with a sample temperature controller. CD spectra of the Soret region (370-450 nm) were recorded with 10-mm path length cells containing 20 mM Hepes, pH 7.4, and 10 μM cytochrome c, in the presence or absence of 30 μg/ml cardiolipin and different SS peptide analogs (SS-02, [atn]SS-02, [ald]SS-02, and SS-31). The maximum lipid concentration was kept low to avoid spectral distortions due to excessive light scattering. All measurements were done at 25° C. All spectra were corrected for background, and the final spectrum shown represents the average of at least three experiments.

[2] = biological target: cardiolipin-cytochrome c complex (Equus caballus, UniProt P00004); assay: Cytochrome c reduction in the presence of cardiolipin; settings: for rate of cytochrome c reduction in the presence of cardiolipin: 40 μM peptide, 100 μg/ml cardiolipin, 50 μM ascorbate, 10% with cardiolipin alone
Description: Reduction of cytochrome c (20 μM) was induced by the addition of glutathione (500 μM) in the absence or presence of CL (100 μg/ml) (FIG. 15A). Reduction of cytochrome c was monitored by absorbance at 550 nm using a 96-well UV-VIS plate reader (Molecular Devices). Addition of CL decreased the rate of cytochrome c reduction by half.
The time course of cytochrome c reduction by ascorbate was recorded at 550 nm and 570 nm using a 96-well plate reader (Molecular Devices, Sunnyvale, Calif.). For all reactions, cytochrome c was preincubated with cardiolipin in the presence or absence of SS peptides for 1 min. […] Ascorbate (50 μM) was added to initiate the reduction of cytochrome c, and the absorbance was recorded for 5 min. The rate of reduction was calculated based on slope of the change in absorbance intensity of 550 nm over 570 nm.

cytochrome c/CL complex = cytochrome c/CL complex (Equus caballus, UniProt P00004); assay: Peroxidase activity of cytochrome c/cardiolipin complex (Amplex Red); settings: 2 μM cytochrome c; for peroxidation rate of cytochrome c: 10 μM peptide, cardiolipin 100 μg/ml
From the text: The six coordination of the heme in cytochrome c prevents direct interaction of H2O2 with the catalytic metal site, and native cytochrome c in solution is a poor peroxidase. Upon interaction with CL, cytochrome c undergoes a structural change with rupture of the Fe-Met80 coordination. […] The mechanism of action of cytochrome c peroxidase is similar to that of other peroxidases, such as horse radish peroxidase (HRP). Thus it is possible to use the amplex red-HRP reaction to investigate cytochrome c peroxidase activity. In the presence of peroxidase, amplex red (AR) reacts with H2O2 to form the red-fluorescent oxidation product, resorufin (Ex/Em=571/585).
Cytochrome c (2 μM) was mixed with CL (25 μg/ml) and 10 μM H2O2 in 20 mM HEPES, pH 7.4. Amplex red (50 μM) was then added and fluorescence emission monitored in real time using Hitachi F4500 fluorescence spectrophotometer. Addition of amplex red elicited rapid increase in fluorescence signal due to resorufin formation, providing direct evidence for peroxidase activity of cytochrome c/CL complex (FIG. 19A).
Assessment of cytochrome c peroxidase activity was achieved using the Amplex® Red assay (Invitrogen/Life Technologies, Carlsbad, Calif.). Amplex® Red is a reagent that reacts with H2O2 in a 1:1 stoichiometry to produce highly fluorescent resorufin (λex/λem=570/585) in the presence of a peroxidase. In this assay, cytochrome c is added in place of horseradish peroxidase. 2 μM cytochrome c was incubated with cardiolipin or cardiolipin-POPC liposomes (10 μg/ml) for 1 min in 20 mM HEPES (pH 7.4) or deionized water prior to the addition of 50 μM Amplex® Red reagent and 10 μM H2O2, and the reaction was allowed to proceed for an additional 5 minutes. The continuous time course data were obtained using Hitachi F-4500 fluorescence spectrophotometer. When comparing the different SS peptide analogs (10 μM) in inhibiting peroxidase activity cytochrome c (2 μM) in the presence of cardiolipin (100 μg/ml), a microplate spectrofluorometer (Molecular Devices, Sunnyvale, Calif.) was used. Horseradish peroxidase (HRP) was used for comparison, and the HRP concentration (0.001 U/ml) was optimized to match the rate of Amplex® Red peroxidation by cardiolipin-cytochrome c complex.

[3] = biological target: cytochrome c and cardiolipin (Equus caballus, UniProt P00004); assay: Oxidation of ferrous cytochrome c by cardiolipin (A550); settings: 20 μM cytochrome c reduced by 50 μM ascorbic acid; 100 μg/ml cardiolipin
Description: Cytochrome c (20 μM) was reduced by 50 μM ascorbic acid until all available functionally active cytochrome c was reduced. The reduction of cytochrome c was monitored by the appearance of a peak at 550 nm in its absorbance spectrum (Molecular Devices, Sunnyvale, Calif.). […] The rate of oxidation was calculated based on slope of the change in absorbance intensity of 550 nm over 570 nm.

Sequence of cytochrome c and cardiolipin (P00004 2-105 limits assumed): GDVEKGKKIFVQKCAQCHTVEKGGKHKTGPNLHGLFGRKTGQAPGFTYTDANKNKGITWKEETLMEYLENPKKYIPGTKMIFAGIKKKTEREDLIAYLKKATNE
Sequence of cytochrome c/cardiolipin complex (P00004 2-105 limits assumed, one chain of several): as the sequence (P00004 2-105 limits assumed) above
Sequence of cardiolipin-cytochrome c complex (P00004 2-105 limits assumed, one chain of several): as the sequence (P00004 2-105 limits assumed) above
Sequence of cytochrome c/CL complex (P00004 2-105 limits assumed, one chain of several): as the sequence (P00004 2-105 limits assumed) above

| Substance | protection against CL-induced disappearance of negative Cotton effect [1] | loss of the negative Cotton peak at 419 nm caused by cardiolipin [1] | rate of cytochrome c reduction in the presence of cardiolipin ([2]; 20 μM cytochrome c) | peroxidation rate of cytochrome c (cytochrome c/CL complex) | oxidation of cytochrome c by cardiolipin (loss of the 550 nm peak) [3] | inhibitory action of CL on cytochrome c reduction ([2]; 20 μM cytochrome c, 500 μM glutathione, CL 100 μg/ml, SS-31 20, 40 or 100 μM) | inhibitory effect of CL on kinetics of cytochrome c reduction ([2]; 500 μM GSH or 50 μM ascorbate) | rate of amplex red peroxidation / kinetics of cytochrome c peroxidase activity (cytochrome c/CL complex; CL 25 μg/ml, 10 μM H2O2, 50 μM amplex red) |
| --- | --- | --- | --- | --- | --- | --- | --- | --- |
| 2′,6′-Dmt-D-Arg-Phe-(atn)Dap-NH2 [SS-19] | Protect the Heme Environment of Cytochrome c from the Acyl Chain of CL | prevented | about 50% | ~75 % of control | inhibition of cytochrome c oxidation |  |  |  |
| 2′,6′-Dmt-D-Arg-Ald-Lys-NH2 [SS-36] | Protect the Heme Environment of Cytochrome c from the Acyl Chain of CL | prevented | about 90% | about 20 % of control | inhibition of cytochrome c oxidation |  |  |  |
| D-Arg-2′,6′-Dmt-Lys-Phe-NH2 [SS-31] | Protect the Heme Environment of Cytochrome c from the Acyl Chain of CL | prevented | 100% | ~35 % of control | prevented by the addition of SS-31 in a concentration-dependent manner | dose-dependently prevented the inhibitory action of CL | dose-dependently overcame the inhibitory effect of CL | decreased the rate of amplex red peroxidation; also recorded: dose-dependently reduced the kinetics of cytochrome c peroxidase activity |
